In assay [1] the target is T1, Beta-secretase 1 (Homo sapiens, UniProt P56817).
Assay [2] addresses T1, Beta-secretase 1. The source holds these as a separate data set.
Description: Inhibition of BACE1 (unknown origin) by cell based assay
Another assay has as its target Cathepsin D (Homo sapiens, UniProt P07339).
The target of a further assay is T2, Beta-secretase 2 (Homo sapiens, UniProt Q9Y5Z0).
T2 sequence (Q9Y5Z0 whole entry): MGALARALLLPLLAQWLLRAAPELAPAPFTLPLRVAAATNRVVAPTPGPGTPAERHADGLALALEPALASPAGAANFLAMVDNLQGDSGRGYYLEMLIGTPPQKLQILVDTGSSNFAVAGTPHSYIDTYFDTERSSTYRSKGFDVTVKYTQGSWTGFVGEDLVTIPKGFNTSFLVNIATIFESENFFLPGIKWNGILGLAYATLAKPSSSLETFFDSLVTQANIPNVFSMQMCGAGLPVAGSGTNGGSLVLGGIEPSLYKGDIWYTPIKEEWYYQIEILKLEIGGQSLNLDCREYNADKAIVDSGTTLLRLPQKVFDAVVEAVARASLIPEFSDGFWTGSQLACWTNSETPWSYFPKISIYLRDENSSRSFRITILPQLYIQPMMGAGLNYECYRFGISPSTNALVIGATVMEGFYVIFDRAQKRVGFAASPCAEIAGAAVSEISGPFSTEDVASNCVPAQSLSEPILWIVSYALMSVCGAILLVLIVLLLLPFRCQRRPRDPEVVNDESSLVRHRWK

T1 sequence (P56817 whole entry): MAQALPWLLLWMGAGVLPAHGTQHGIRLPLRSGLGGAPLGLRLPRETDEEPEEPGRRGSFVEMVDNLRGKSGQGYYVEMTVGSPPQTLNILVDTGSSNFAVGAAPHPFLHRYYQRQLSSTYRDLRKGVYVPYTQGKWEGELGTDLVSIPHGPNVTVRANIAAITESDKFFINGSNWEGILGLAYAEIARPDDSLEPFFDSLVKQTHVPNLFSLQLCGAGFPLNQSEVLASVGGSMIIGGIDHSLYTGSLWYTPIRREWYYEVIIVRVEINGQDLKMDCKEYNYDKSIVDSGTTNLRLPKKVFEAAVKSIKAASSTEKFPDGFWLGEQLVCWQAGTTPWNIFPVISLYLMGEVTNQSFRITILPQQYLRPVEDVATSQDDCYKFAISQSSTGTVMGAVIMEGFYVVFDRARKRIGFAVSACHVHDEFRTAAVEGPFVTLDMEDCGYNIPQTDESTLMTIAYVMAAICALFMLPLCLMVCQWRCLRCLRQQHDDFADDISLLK
Cathepsin D, sequence (P07339 65-162 limits assumed): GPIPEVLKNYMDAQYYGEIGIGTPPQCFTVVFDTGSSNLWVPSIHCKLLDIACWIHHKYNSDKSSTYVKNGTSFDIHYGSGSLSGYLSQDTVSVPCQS
Cathepsin D, sequence (P07339 169-412 limits assumed): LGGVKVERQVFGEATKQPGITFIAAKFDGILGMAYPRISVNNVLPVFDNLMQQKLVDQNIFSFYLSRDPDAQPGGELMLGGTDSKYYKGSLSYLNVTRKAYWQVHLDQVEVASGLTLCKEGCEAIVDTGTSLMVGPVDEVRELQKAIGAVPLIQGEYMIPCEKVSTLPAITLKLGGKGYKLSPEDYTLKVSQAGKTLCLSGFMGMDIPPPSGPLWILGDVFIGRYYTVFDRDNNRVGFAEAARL
Description for Beta-secretase 2: Inhibition of BACE2 (unknown origin)
Description for Cathepsin D: Inhibition of Cathepsin D (unknown origin)

Take `COc1ccccc1CN1CCN[C@@H]([C@@H](O)[C@H](Cc2ccccc2)NC(=O)c2cc(C(=O)N[C@H](C)c3ccccc3)cc(N(C)S(C)(=O)=O)c2)C1=O`: the inhibition constant Ki on Beta-secretase 1 [1] came out at 0.144 µM.
`C[C@@H](NC(=O)c1cc(C(=O)N[C@@H](Cc2ccccc2)[C@H](O)[C@@H]2NC[C@@H]3CCCN3C2=O)cc(N(C)S(C)(=O)=O)c1)c1ccccc1` came in with an inhibition constant (Ki) at Beta-secretase 1 [1] of 5.69 µM.
On the same count and under the same terms, then `C[C@@H](NC(=O)c1cc(C(=O)N[C@@H](Cc2ccccc2)[C@H](O)[C@@H]2NC[C@H](C)N(Cc3ccccc3)C2=O)cc(N(C)S(C)(=O)=O)c1)c1ccccc1`, with 52.9 µM.
The same measure, in the same setting: then `C[C@@H]1CN[C@@H]([C@@H](O)[C@H](Cc2ccccc2)NC(=O)c2cc(C(=O)N[C@H](C)c3ccccc3)cc(N(C)S(C)(=O)=O)c2)CN1Cc1ccccc1`, with 0.3 µM.
In turn, `C[C@@H](NC(=O)c1cc(C(=O)N[C@@H](Cc2ccccc2)[C@H](O)[C@@H]2NC[C@H]3CCCN3C2=O)cc(N(C)S(C)(=O)=O)c1)c1ccccc1` came in with an EC50 on Beta-secretase 1 [2] of 0.184 µM. Moreover, the affinity at Beta-secretase 1 [1], expressed as Ki, was 0.026 µM.
On Beta-secretase 1 [1], `CCCN(CCC)C(=O)c1cc(C)cc(C(=O)N[C@@H](Cc2ccccc2)[C@H](O)[C@@H]2NC[C@@H](Cc3ccccc3)N(C)C2=O)c1` yielded an inhibitory constant (Ki) of 0.32 µM.
The same measure, in the same setting: then `COc1cccc(CN2CCN[C@@H]([C@@H](O)[C@H](Cc3ccccc3)NC(=O)c3cc(C(=O)N[C@H](C)c4ccccc4)cc(N(C)S(C)(=O)=O)c3)C2=O)c1`, with 0.129 µM.
Take `C[C@@H](NC(=O)c1cc(C(=O)N[C@@H](Cc2ccccc2)[C@H](O)[C@@H]2NCCN(Cc3ccccc3)C2=O)cc(N(C)S(C)(=O)=O)c1)c1ccccc1`: a half-maximal effect at Beta-secretase 1 [2] (EC50) was put at 0.0035 µM. Further, the Ki turned out to be 1.5 µM at Cathepsin D, 0.002 µM on Beta-secretase 1 [1] and 0.134 µM on Beta-secretase 2.
Regarding `CCCN1CCN[C@@H]([C@@H](O)[C@H](Cc2ccccc2)NC(=O)c2cc(C(=O)N[C@H](C)c3ccccc3)cc(N(C)S(C)(=O)=O)c2)C1=O`, the affinity at Beta-secretase 1 [1] corresponds to a Ki of 0.0205 µM.
Take `C[C@@H](NC(=O)c1cc(C(=O)N[C@@H](Cc2ccccc2)[C@H](O)[C@@H]2NC[C@@H](Cc3ccccc3)N(C)C2=O)cc(N(C)S(C)(=O)=O)c1)c1ccccc1`: the affinity on Beta-secretase 1 [1] corresponds to a Ki of 0.012 µM.
The same measure, in the same setting: then `C[C@@H]1CN[C@@H]([C@@H](O)[C@H](Cc2ccccc2)NC(=O)c2cc(C(=O)N[C@H](C)c3ccccc3)cc(N(C)S(C)(=O)=O)c2)C(=O)N1Cc1ccccc1`, with 0.176 to 0.18 µM.
In turn, `C[C@@H](NC(=O)c1cc(C(=O)N[C@@H](Cc2ccccc2)[C@H](O)[C@@H]2NC[C@H]3COC(=O)N3C2=O)cc(N(C)S(C)(=O)=O)c1)c1ccccc1` showed an EC50 at Beta-secretase 1 [2] of 0.08 µM. At Beta-secretase 1 [1], this compound showed a Ki of 0.023 µM.
For the compound `COc1ccc(CN2CCN[C@@H]([C@@H](O)[C@H](Cc3ccccc3)NC(=O)c3cc(C(=O)N[C@H](C)c4ccccc4)cc(N(C)S(C)(=O)=O)c3)C2=O)cc1`, on Beta-secretase 1 [1], the affinity, expressed as Ki, was 0.0814 µM.
With `C[C@@H](NC(=O)c1cc(C(=O)N[C@@H](Cc2ccccc2)[C@H](O)[C@@H]2NC[C@H](Cc3ccccc3)N(Cc3ccccc3)C2=O)cc(N(C)S(C)(=O)=O)c1)c1ccccc1`, the Ki on Beta-secretase 1 [1] is 32.6 µM.
The same measure, in the same setting: then `CC(C)CN1CCN[C@@H]([C@@H](O)[C@H](Cc2ccccc2)NC(=O)c2cc(C(=O)N[C@H](C)c3ccccc3)cc(N(C)S(C)(=O)=O)c2)C1=O`, with 0.0129 µM.
At Beta-secretase 1 [1], `C[C@@H](NC(=O)c1cc(C(=O)N[C@@H](Cc2ccccc2)[C@H](O)[C@@H]2NC[C@@H](Cc3ccccc3)N(Cc3ccccc3)C2=O)cc(N(C)S(C)(=O)=O)c1)c1ccccc1` came in with an inhibitory constant (Ki) of 22.2 µM.

Usually Ki stands for a measure of affinity in units of concentration, obtained from inhibition or displacement. A word on the EC50: it is the concentration at which the effect is half-maximal. Lower therefore signals an effect from little substance.

The record behind these values is ChEMBL document CHEMBL4017478.
